# Source: patent US9469615B2, “Quinoxalines and AZA-quinoxalines as CRTH2 receptor modulators” (Merck Sharp & Dohme Corp., priority 2010, dated 2016)
# Molecular target: T1, hCRTH2 (Homo sapiens, UniProt Q9Y5Y4)
# T1 construct: expressed in transfected cells; host or cells: HEK (human embryonic kidney) cells expressing hCRTH2; membrane preparation
# T1 sequence (Q9Y5Y4 1-395): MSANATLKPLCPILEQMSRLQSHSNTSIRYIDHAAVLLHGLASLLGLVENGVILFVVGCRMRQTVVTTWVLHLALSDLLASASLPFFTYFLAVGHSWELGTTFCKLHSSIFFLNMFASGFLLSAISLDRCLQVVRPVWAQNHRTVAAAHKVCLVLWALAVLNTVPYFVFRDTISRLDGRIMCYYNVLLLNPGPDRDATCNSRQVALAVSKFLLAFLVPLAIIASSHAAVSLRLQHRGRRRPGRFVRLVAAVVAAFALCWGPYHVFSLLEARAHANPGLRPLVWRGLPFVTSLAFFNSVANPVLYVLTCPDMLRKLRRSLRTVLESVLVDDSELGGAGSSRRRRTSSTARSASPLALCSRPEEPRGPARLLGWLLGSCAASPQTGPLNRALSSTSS
# Assay: Radioligand binding assay ([3H]PGD2 competition, HEK-hCRTH2 membranes)
# Details: [3H]PGD2 binding, rated A-E (Table A)
# Description: Biological Assays Radioligand Binding Assay.
# Radioligand binding assays were performed at room temperature in 50 mM Tris-HCl pH 7.4, 1 mM EDTA containing 2 mM MnCl2 and 3.0 nM [^3H]PGD2 (New England Nuclear, Boston, Mass.) (171 Ci mmol^−1), in a final volume of 0.2 mL. Competing ligands were diluted in dimethylsulfoxide (Me2SO) that was kept constant at 1% (v/v) of the final incubation volume. The reaction was initiated by the addition of 8-20 μg of membrane protein prepared from a human embryonic kidney (HEK)-hCRTH2 cell line. Total and non-specific binding were determined in the absence and the presence of 10 μM PGD2, respectively. […] The reaction was routinely conducted for 60 min at room temperature and terminated by rapid filtration through prewetted (0.3% polyethyleneimine) 96-well printed Filtermate™ (Wallac) using a Tomtec® harvester (Hamden, Conn.). After washing with cold buffer, the filter was dried for 2 minutes in microwave, and Meltilex Scintillator sheet (Wallac) was melted on for 2 min. The radioactivity was measured with Betaplate model 1205 (Wallac).
row,Ki,Compound
1,0.1 to 2 nM,"O=C(O)CCCCc1nc2cc(C(=O)NC3CCCc4ccccc43)ccc2nc1-c1ccccc1 (stereo not drawn) [15AR, 5-[3-phenyl-7-(1,2,3,4-tetrahydronaphthalen-1-ylcarbamoyl)quinoxalin-2-yl]pentanoic acid]"
2,2.1 to 20 nM,"C[C@H](NC(=O)c1ccc2nc(-c3ccccc3)c(CCCCC(=O)O)nc2c1)c1ccccc1 [15B, 5-(3-phenyl-7-{[(1S)-1-phenylethyl]carbamoyl}quinoxalin-2-yl) pentanoic acid]"
3,2.1 to 20 nM,"O=C(O)CCCCc1nc2cc(C(=O)N[C@@H](CCO)c3ccccc3)ccc2nc1-c1ccc(Cl)cc1 [16AR, 3-(4-chlorophenyl)-7-[[(3-hydroxy-1(S)-phenylpropyl)amino]carbonyl]-2-quinoxalinepentanoic acid]"
4,2.1 to 20 nM,"N#Cc1ccc(CNC(=O)c2ccc3nc(-c4ccc(F)cc4)c(CCCCC(=O)O)nc3c2)cc1 [compound 104, 7-[[[(4-cyanophenyl)methyl]amino]carbonyl]-3-(4-fluorophenyl)-2-quinoxalinepentanoic acid]"
5,0.1 to 2 nM,"O=C(O)CCCCc1nc2cc(C(=O)NCc3cc(Cl)cc(Cl)c3)ccc2nc1-c1ccc(Cl)cc1 [16Q, 3-(4-chlorophenyl)-7-[[[(3,5-dichlorophenyl)methyl]amino]carbonyl]-2-quinoxalinepentanoic acid]"
6,2.1 to 20 nM,"CC(CCCc1nc2cc(C(=O)N[C@@H](c3ccccc3)C(F)(F)F)ccc2nc1-c1ccc(Cl)cc1)C(=O)O (stereo partly drawn) [compound 163, 3-(4-chlorophenyl)-alpha-methyl-7-[[(2,2,2-trifluoro-1(S)-phenylethyl)amino]carbonyl]-2-2-quinoxalinepentanoic acid]"
7,2.1 to 20 nM,"O=C(O)Cc1cccc(CCc2nc3cc(C(=O)N4CC(c5ccccc5)C4)ccc3nc2-c2ccc(F)cc2)c1 [compound 200, 3-[2-[3-(4-fluorophenyl)-7-[(3-phenyl-1-azetidinyl)carbonyl]-2-quinoxalinyl]ethyl] benzeneacetic acid]"
8,2.1 to 20 nM,"O=C(O)CCCCc1nc2cc(C(=O)NCc3ccc(F)cc3)ccc2nc1-c1ccccc1 [15AD, 5-{7-[(4-fluorobenzyl)carbamoyl]-3-phenylquinoxalin-2-yl}pentanoic acid]"
9,2.1 to 20 nM,"O=C(O)CCCCc1nc2cc(C(=O)N3CCC[C@@H](c4ccccc4)C3)ccc2nc1-c1ccccc1 [compound 142, 3-phenyl-7-[(3(S)-phenyl-1-piperidinyl)carbonyl]-2-quinoxalinepentanoic acid]"
10,0.1 to 2 nM,"C[C@H](NC(=O)c1ccc2nc(-c3ccc(Cl)cc3)c(CCCCC(=O)O)nc2c1)c1ccc(Cl)cc1 [16AE, 3-(4-chlorophenyl)-7-[[[1(S)-(4-chlorophenyl)ethyl]amino]carbonyl]-2-quinoxalinepentanoic acid]"

# Same assay, conditions: [3H]PGD2 binding, values in text
row,Ki,Compound
1,1.6 nM,"O=C(O)CCCCc1nc2cc(C(=O)NC3CCCc4ccccc43)ccc2nc1-c1ccccc1 (stereo not drawn) [15AR, 5-[3-phenyl-7-(1,2,3,4-tetrahydronaphthalen-1-ylcarbamoyl)quinoxalin-2-yl]pentanoic acid]"
2,39.2 nM,C[C@@H](CCc1nc2cc(C(=O)N(C)Cc3ccc(F)cc3)ccc2nc1-c1ccccc1)CC(=O)O [compound 292]

# Same assay, conditions: [3H]PGD2 competition, Table B
row,Ki,Compound
1,0.1 to 2 nM,"O=C(O)CCCCc1nc2cc(C(=O)N[C@@H]3CCc4cc(F)ccc43)ccc2nc1-c1ccc(Cl)cc1 [compound 381, (R)-5-(3-(4-chlorophenyl)-7-((5-fluoro-2,3-dihydro-1H-inden-1-yl)carbamoyl)quinoxalin-2-yl)pentanoic acid]"
2,2.1 to 20 nM,"CC(C)[C@@H](NC(=O)c1ccc2nc(-c3ccc(Cl)cc3)c(CCCCC(=O)O)nc2c1)c1ccc(F)cc1 [compound 399, (R)-5-(3-(4-chlorophenyl)-7-((1-(4-fluorophenyl)-2-methylpropyl)carbamoyl)quinoxalin-2-yl) pentanoic acid]"
3,2.1 to 20 nM,"C[C@@H](CCc1nc2cc(C(=O)N[C@@H]3CCCc4ccccc43)ccc2nc1-c1ccc(F)cc1)CC(=O)O [compound 258, (S)-5-(3-(4-fluorophenyl)-7-(((R)-1,2,3,4-tetrahydronaphthalen-1-yl)carbamoyl)quinoxalin-2-yl)-3-methylpentanoic acid]"
4,0.1 to 2 nM,O=C(O)CCCCc1nc2cc(C(=O)N[C@@H]3CCCc4ccncc43)ccc2nc1-c1ccc(Cl)cc1 [compound 617]
5,2.1 to 20 nM,"O=C(O)CCCCc1nc2cc(C(=O)N[C@@H]3CCOc4cc(F)c(F)cc43)ccc2nc1-c1ccc(F)cc1 [compound 538, (R)-5-(7-((6,7-difluorochroman-4-yl)carbamoyl)-3-(4-fluorophenyl)quinoxalin-2-yl)pentanoic acid]"
6,0.1 to 2 nM,"O=C(O)CCCCc1nc2cc(C(=O)N3CCN(c4nc5ccccc5s4)CC3)ccc2nc1-c1ccc(Cl)cc1 [compound 602, 5-(7-(4-(benzo[d]thiazol-2-yl)piperazine-1-carbonyl)-3-(4-chlorophenyl)quinoxalin-2-yl)pentanoic acid]"
7,2.1 to 20 nM,"O=C(O)CCCCc1nc2cc(C(=O)N3CCN4CCCC4C3)ccc2nc1-c1ccc(Cl)cc1 (stereo not drawn) [compound 598, 5-(3-(4-chlorophenyl)-7-(octahydropyrrolo[1,2-a]pyrazine-2-carbonyl)quinoxalin-2-yl)pentanoic acid]"
8,0.1 to 2 nM,"O=C(O)CCCCc1nc2cc(C(=O)N3CC(c4ccc(F)c(F)c4)C3)ccc2nc1-c1ccc(Cl)cc1 [compound 420, 5-(3-(4-chlorophenyl)-7-(3-(3,4-difluorophenyl)azetidine-1-carbonyl)quinoxalin-2-yl)pentanoic acid]"
9,2.1 to 20 nM,"O=C(O)CCCCc1nc2cc(C(=O)NC3CCCOc4ccccc43)ccc2nc1-c1ccc(Cl)cc1 (stereo not drawn) [compound 579, 5-(3-(4-chlorophenyl)-7-((2,3,4,5-tetralaydrobenzo[b]oxepin-5-yl)carbamoyl)quinoxalin-2-yl)pentanoic acid]"
10,2.1 to 20 nM,"O=C(O)CCCCc1nc2cc(C(=O)NC3CC(=O)Nc4ccccc43)ccc2nc1-c1ccccc1 (stereo not drawn) [compound 266, 5-(7-((2-oxo-1,2,3,4-tetrahydroquinolin-4-yl)carbamoyl)-3-phenylquinoxalin-2-yl)pentanoic acid]"
11,20.1 to 200 nM,C[C@@H](CCc1nc2cc(C(=O)N(C)Cc3ccc(F)cc3)ccc2nc1-c1ccccc1)CC(=O)O [compound 292]
12,2.1 to 20 nM,"O=C(O)CCCCc1nc2cc(C(=O)N3CC4CC4(c4ccccc4)C3)ccc2nc1-c1ccc(Cl)cc1 (stereo not drawn) [compound 690, 5-(3-(4-chlorophenyl)-7-(1-phenyl-3-azabicyclo[3.1.0]hexane-3-carbonyl)quinoxalin-2-yl)pentanoic acid]"
13,2.1 to 20 nM,"O=C(O)CCCCc1nc2cc(C(=O)N3CCC4(CC3)CCN(c3ccccc3)C4=O)ccc2nc1-c1ccc(Cl)cc1 [compound 634, 5-(3-(4-chlorophenyl)-7-(1-oxo-2-phenyl-2,8-diazaspiro[4.5]decane-8-carbonyl)quinoxalin-2-yl)pentanoic acid]"
14,20.1 to 200 nM,"C[C@@H](NC(=O)c1ccc2nc(-c3cccc(C#N)c3)c(CCCCC(=O)O)nc2c1)c1ccc(F)cc1 [compound 410, (R)-5-(3-(3-cyanophenyl)-7-((1-(4-fluorophenyl)ethyl)carbamoyl)quinoxalin-2-yl)pentanoic acid]"
15,0.1 to 2 nM,"CN(Cc1ccc(F)cc1)C(=O)c1ccc2nc(-c3ccc(Cl)cc3)c(CCc3cc(F)cc(CC(=O)O)c3)nc2c1 [compound 447, 2-(3-(2-(3-(4-chlorophenyl)-7-((4-fluorobenzyl)(methyl)carbamoyl)quinoxalin-2-yl)ethyl)-5-fluorophenyl)acetic acid]"
16,2.1 to 20 nM,"CC(CCc1nc2cc(C(=O)N[C@@H](C)c3ccc(F)cc3)ccc2nc1-c1ccc(F)cc1)CC(=O)O (stereo partly drawn) [compound 430, 5-(3-(4-fluorophenyl)-7-(((S)-1-(4-fluorophenyl)ethyl)carbamoyl)quinoxalin-2-yl)-3-methylpentanoic acid]"
17,0.1 to 2 nM,"O=C(O)CCCCc1nc2cc(C(=O)N[C@@H]3CCc4cc(Cl)ccc43)ccc2nc1-c1ccc(Cl)cc1 [compound 383, (R)-5-(7-((5-chloro-2,3-dihydro-1H-inden-1-yl)carbamoyl)-3-(4-chlorophenyl)quinoxalin-2-yl)pentanoic acid]"
18,20.1 to 200 nM,"O=C(c1ccc2nc(-c3ccccc3)c(CCCC(F)(F)C(=O)O)nc2c1)N1CCN(c2ccccc2)CC1 [compound 470, 2,2-difluoro-5-(3-phenyl-7-(4-phenylpiperazine-1-carbonyl)quinoxalin-2-yl)pentanoic acid]"
19,2.1 to 20 nM,"C[C@H](NC(=O)c1ccc2nc(-c3ccc(Cl)cc3)c(CC3CCC(C(=O)O)C3)nc2c1)c1ccccc1 (stereo partly drawn) [compound 404, 3-((3-(4-chlorophenyl)-7-(((S)-1-phenylethyl)carbamoyl)quinoxalin-2-yl)methyl)cyclopentane-carboxylic acid]"
20,0.1 to 2 nM,"O=C(O)CCCCc1nc2cc(C(=O)N3CC[C@H](c4ccc(F)cc4)C3)ccc2nc1-c1ccc(Cl)cc1 [compound 577, (R)-5-(3-(4-chlorophenyl)-7-(3-(4-fluorophenyl)pyrrolidine-1-carbonyl)quinoxalin-2-yl)pentanoic acid]"
21,2.1 to 20 nM,"O=C(O)CCCCc1nc2cc(C(=O)N3CCN(c4ccccc4Cl)CC3)ccc2nc1-c1ccccc1 [compound 308, 5-(7-(4-(2-chlorophenyl)piperazine-1-carbonyl)-3-phenylquinoxalin-2-yl)pentanoic acid]"
